1 compound from patent publication US20220144850A1, “INDOLO HEPTAMYL OXIME ANALOGUE AS PARP INHIBITOR” (Chia Tai Tianqing Pharmaceutical Group Co., Ltd., priority 2019, published 2022) can be followed below.

SMILES strings stand for the structures.

The test relates to human breast cancer MDA-MB-436 cells. As to the kind of experiment: In vivo pharmacodynamic study, subcutaneous xenograft tumor model of MDA-MB-436 cells. Details: species or system BALB/c nude mouse. The settings on record: for TGI: day 27; for Tumor volume (day 27): mean ± SEM. The text has this:
Experimental Example 9: In Vivo Pharmacodynamic Study of Compounds in Subcutaneous Xenograft Tumor BALB/c Nude Mouse Model of Human Breast Cancer MDA-MB-436 Cells
Experimental objective: to study the efficacy in vivo of the test compound in subcutaneous xenograft tumor BALB/c nude mouse model of human breast cancer MDA-MB-436 cells.
Experimental materials: week age and body weight: female BALB/c nude mice, 6-8 weeks old, 18-22 g of body weight. The experiment started after 3-7-days of adaptive feeding. The animal information card of each cage provides the following information about the animals: number, sex, strain, receiving date, administration regime, experiment number, group and starting date of the experiment. All the cages, padding and drinking water were sterilized before use. The cages, feed and drinking water were changed twice a week. The experimental animals were identified with ear tags. Test samples: Example 24_A and Example 25_A. All the test samples were prepared with 10% DMSO+90% (20% HP-β-CD) as vehicle, and the blank control group was administered with the vehicle alone.
1. Cell culturing. Human breast cancer MDA-MB-436 cells (ATCC, Manassas, Va., catalog No.: HTB-130) were cultured in an RPMI-1640 culture medium containing 10% fetal bovine serum and 1% Anti-anti through in vitro monolayer culture in an incubator at 37° C./5% CO2. The cells were digested with trypsin-EDTA twice a week for passaging as per conventional practice. At a cell saturation of 80%-90% and a required number, the cells were collected, counted and inoculated. 2. Tumor cell inoculation (tumor inoculation). 0.2 mL (1×10^7 cells) of MDA-MB-436 cells (along with matrigel in a volume ratio of 1:1) was subcutaneously inoculated on the right back of each mouse, and the mice were randomly grouped when the average tumor volume was 318 mm^3. 3. Daily observation of experimental animals: animals were monitored daily for health and death, and routine examinations include observation of the effect of tumor growth and drug treatment on the daily performance of the animals, such as behavioral activities, food and water intake, weight changes, appearance, or other abnormal conditions. 4. Tumor measurements and experimental indices: the experimental indices were to investigate whether the tumor growth was inhibited, the tumor growth was delayed or the tumor was cured. Tumor diameters were measured twice weekly using a vernier caliper. The tumor volume was calculated using the following formula: V=0.5a×b^2, where a and b represent the long diameter and short diameter of the tumor, respectively. The anti-tumor therapeutic effect of the compound was evaluated by TGI (%) or relative tumor proliferation rate T/C (%). TGI (%) refers to the rate of tumor growth inhibition. Calculation of TGI (%): TGI (%)=[(1−(average tumor volume at the end of administration in a treatment group−average tumor volume at the start of administration of the treatment group))/(average tumor volume at the end of treatment of the solvent control group−average tumor volume at the start of treatment of the solvent control group)]×100%. The calculation formula for relative tumor proliferation rate T/C (%) was as follows: T/C (%)=TRTV/CRTV×100% (TRTV: RTV of treatment group; CRTV: RTV of negative control group). Relative tumor volume (RTV) was calculated based on the results of tumor measurement. The calculation formula was: RTV=Vt/V0, wherein V0 was the average tumor volume measured at the time of grouping and administration (i.e., d0), Vt was the average tumor volume at a certain measurement, and the data of TRTV and CRTV used were obtained on the same day. 5. Statistical analysis: including mean and standard error of mean (SEM) of tumor volume at each time point for each group. […] The experimental data were analyzed using a one-way ANOVA method and a Games-Howell method. All data analysis was performed with SPSS 17.0. p<0.05 was defined as a significant difference.

Take `CC1(c2ccc(-c3[nH]c4cc(F)cc5c4c3CONC5=O)cc2)CCCN1` (stereo not drawn) [Example 25_A]: the TGI runs as follows: (12.5 mg/kg PO QD × 28 days) 95.34%; (25 mg/kg PO QD × 28 days) 114.69%; (50 mg/kg PO QD × 28 days) 117.86%. The “Tumor volume (day 27)” value is, setting by setting: (12.5 mg/kg PO QD × 28 days) 377 ± 149 mm^3; (25 mg/kg PO QD × 28 days) 132 ± 32 mm^3; (50 mg/kg PO QD × 28 days) 91 ± 14 mm^3.
